Key:
[1] = cited from earlier work
[2] = Dissolution studies of arsenic salts in 100 mL water with stirring at room temperature (pH 7 and pH 1-2); format: physicochemical; conditions: for Dissolution Time at pH 1-2 / Final pH after dissolution / Dissolution Time at pH 7: 100 mL, stirring, room temperature
[3] = Dissolution of 1 mg arsenic trioxide capsule in 0.1M HCl and purified water with 0.5% BKC; format: physicochemical; conditions: 1 mg capsule RX500950.01, 500 ml medium, 37° C., paddle 50 rpm
Procedure: To manufacture the components for insertion into the capsule all ingredients were sieved through a 500 μm sieve into a sealable jar and blended for 20 minutes in a tumble blender. The blended powder was filled into the Size 4 white hard gelatin capsules at a fill weight of 140 mg.
For the dissolution experiments the medium was 0.1M HCl and purified water with a volume of 500 ml also containing 0.5% benzalkonium chloride (BKC) at 37° C. The paddle stir speed was 50 rpm. The capsule shell disrupted within three minutes and all contents were expelled in less than five minutes. Only 5% arsenic trioxide was dissolved after 20 minutes. Even after 19 hours only 60% was dissolved. The presence of the citric acid reduced the pH of the medium from ˜8.0 to ˜7.3. Given the anticipated increase in solubility at a higher pH, these experiments were repeated at a higher pH as indicated in the tables below wherein the mean and range values represented percentage dissolution of the arsenic trioxide.

[4] = Dissolution of arsenic trioxide in 0.1M NaOH (pH 13); format: physicochemical
Procedure: A further dissolution experiment was conducted in a solution of 0.1M NaOH (pH 13) and, as expected, more arsenic trioxide could be dissolved with a 100% level reached between 15-20 minutes as indicated in the table below.

[5] = Trial 1: test dissolution of arsenic trioxide solely in sodium bicarbonate solution; format: physicochemical; conditions: 50 mg in 2540 mg sodium bicarbonate / approximately 27.2 mls water, with heating
Procedure: 2540 mg of Sodium Bicarbonate was dissolved in approximately 27.2 mls water (dissolved in less than 5 minutes). 50 mg Arsenic Trioxide was then added to this bicarbonate solution.

[6] = all three mediums: simulated gastric fluid pH 1.24, pH 4.5, pH 7.0; 150 mls, 37° C., spin bar
Procedure: 100 mg of arsenic trioxide was dissolved in 10 mL of 0.5M NaOH with heat (<ten minutes). 250 mg Sodium Carbonate was then added (dissolves almost straight away) and excess water evaporated.
Dissolution experiments were then carried out on the AC01 at 3 different pH levels. […] Prior to addition of the capsules 150 mls of the dissolution solution was heated to 37° C. and the solution contained a spin bar at a speed of 2. The appropriate capsule was then added.

[7] = not dissolved within the time given

O=C([O-])O.[Na+] [Sodium Bicarbonate]
pH 0.1M solution [1]: 8.3

O=[As][O-].[Na+] [Sodium meta arsenite, sodium meta arsenite]
Dissolution Time at pH 1-2 [2]: 55 seconds - Final pH after
Final pH after dissolution ([2]; dissolution at pH 1-2): dissolution = 1.27
Final pH after dissolution ([2]; dissolution at pH 7): pH after dissolution = 10.2
Time to dissolve at pH 1-2 ([2]; pH 1-2): less than one
Time to dissolve at pH 7 ([2]; pH 7): less than 2 minutes

Arsenic trioxide
arsenic trioxide dissolved ([3]; after 20 minutes): 5%
arsenic trioxide dissolved ([3]; after 19 hours): 60%
Time at which 100% dissolution level is reached [4]: 15 to 20 min
% Recovered (weight Corrected) Mean ([4]; 5 minutes): 12%
% Recovered (weight Corrected) Mean ([4]; 10 minutes): 65%
% Recovered (weight Corrected) Mean ([4]; 15 minutes): 96%
% Recovered (weight Corrected) Mean ([4]; 20 minutes): 109%
% Recovered (weight Corrected) Mean ([4]; 25 minutes): 116%
% Recovered (weight Corrected) Mean ([4]; 30 minutes): 114%
Dissolution Time at pH 1-2 [2, 7]: Not dissolved in 3 hours
Dissolution Time at pH 7 [2, 7]: Not dissolved in 3 hours
Dissolution in sodium bicarbonate solution [5]: would not dissolve even with heating

Sodium arsenic carbonate [AC01]
Dissolution Time at pH 1-2 [2]: <5-10 seconds - Final pH
Dissolution Time at pH 7 [2]: 40 seconds - Final pH after
Final pH after dissolution ([2]; dissolution at pH 1-2): after dissolution = 1.13
Final pH after dissolution ([2]; dissolution at pH 7): dissolution = pH 8.95
Time to dissolution of powder from capsule [6]: less than two

— patent US10493099B2, “Compositions containing arsenic and their use in methods of treatment” (Eupharma Pty Ltd, priority 2015, dated 2019)
